In ChEMBL document CHEMBL4219201, “Secoiridoid analogues from the fruits of Ligustrum lucidum and their inhibitory activities against influenza A virus” (Bioorg Med Chem Lett, 2018) one finds inhibition, IC50 and CC50 data, which are given here for twelve compounds.

In general, inhibition refers to the relative decrease from the control value, in per cent. One may read the IC50 as the concentration that gives 50% inhibition. The CC50 is the concentration that lowers cell viability or growth by half.

The test system of series [1] is Influenza A virus. The experiment in a line: Antiviral activity against Influenza A virus (A/WSN/1933(H1N1)) infected in MDCK cells cocultured with human 293T-Gluc cells at 20 uM preincubated with compound for 2 hrs followed by virus infection measured after 24 hrs by luciferase reporter gene assay relative to control. The series is classed as functional.
Series [2] relates to Influenza A virus. The experiment in a line: Antiviral activity against Influenza A virus (A/WSN/1933(H1N1)) infected in MDCK cells cocultured with human 293T-Gluc cells at 100 uM preincubated with compound for 2 hrs followed by virus infection measured after 24 hrs by luciferase reporter gene assay relative to control. The series is classed as functional. On the technique in general: Reporter assays use an easily measured gene product as a stand-in for the process of interest.

For series [3], the system named is Influenza A virus. Kind of series: Antiviral activity against Influenza A virus (A/WSN/1933(H1N1)) infected in MDCK cells cocultured with human 293T-Gluc cells preincubated with compound for 2 hrs followed by virus infection measured after 24 hrs by luciferase reporter gene assay. Type of series: functional, organism-based.
Series [4] can be described thus: Cytotoxicity against MDCK cells assessed as reduction in cell viability by CCK8 assay. Type of series: cell-based, Canis lupus familiaris. The conditions noted are these: dog. (In general: Tetrazolium assays rely on reduction of a dye to a coloured formazan, in cell work by metabolically active cells.)

The structures appear in SMILES notation. Active and inactive are the calls of the source. The rule behind the calls is not given here.

Take `C[C@H]1OC(=O)CC2C(C(=O)O)=CO[C@@H](O[C@@H]3O[C@H](COC(=O)/C=C/c4ccccc4)[C@@H](O)[C@H](O)[C@H]3O)C21` (stereo partly specified): in series [1], the inhibition at 20 µM stood at 35.6%. Besides, in series [2], the inhibition at 100 µM was determined as 33.3%.

For `C/C=C1/[C@H]2OC=C(C(=O)OC)[C@H]1CC(=O)OC[C@@H](c1ccc(O)c(O)c1)OC[C@H]1O[C@@H](O2)[C@H](O)[C@@H](O)[C@@H]1O`, the inhibition entry in series [1] and in series [2] was “inactive” in each case.

Take `NC(=O)c1ncn([C@@H]2O[C@H](CO)[C@@H](O)[C@H]2O)n1` [RIBAVIRIN]: the IC50 in series [3] is 22.6 µM.

For `CCOC(=O)C[C@@H]1C(C(=O)OC)=CO[C@@H](C)[C@@H]1C=O`, in series [1], the inhibition at 20 µM amounted to 55.8%. Besides, in series [3], the half-inhibitory concentration (IC50) came to 18.5 µM. Further, the half-maximal cytotoxic concentration (CC50) in series [4] came to 90.8 µM. Besides, the inhibition at 100 µM in series [2] stood at 96.8%.

For the compound `COC(=O)C1=CO[C@@H](O[C@@H]2O[C@H](CO)[C@@H](O)[C@H](O)[C@H]2O)/C(=C/C(=O)O)[C@@H]1CC(=O)OCCc1ccc(O)c(O)c1`, the inhibition at 20 µM in series [1] is 63.1%. Further, the IC50 in series [3] came to 13.1 µM. Also, the CC50 in series [4] is above 100 µM. Also, the inhibition at 100 µM in series [2] turned out to be 83.2%.

Turning to `C=C[C@H]1[C@H](O[C@@H]2O[C@H](COC(=O)/C=C/c3ccccc3)[C@@H](O)[C@H](O)[C@H]2O)OC=C(C(=O)O)[C@H]1CC(=O)O`, in series [1], the inhibition at 20 µM is 60.8%. Moreover, the IC50 in series [3] was 16.5 µM. Also, the CC50 in series [4] is 80.5 µM. Besides, the inhibition at 100 µM in series [2] amounted to 73.9%.

`COC(=O)C1=CO[C@@H](O[C@@H]2O[C@H](CO)[C@@H](O)[C@H](O)[C@H]2O)/C(=C/C(=O)O)[C@@H]1CC(=O)OCCc1ccc(O)cc1`: the inhibition at 20 µM in series [1] was 60.4%. Besides, the 50% inhibitory concentration (IC50) in series [3] amounted to 12.5 µM. The CC50 in series [4] was above 100 µM. Moreover, the inhibition at 100 µM in series [2] was found to be 81.7%.

Take `C/C=C1/[C@H]2OC=C(C(=O)OC)[C@H]1CC(=O)OC[C@H](c1ccc(O)c(O)c1)OC[C@H]1O[C@@H](O2)[C@H](O)[C@@H](O)[C@@H]1O`: the inhibition entry in series [1] and in series [2] was “inactive” in each case.

On to `COC(=O)C[C@@H]1C(C(=O)OC)=CO[C@@H](C)[C@@H]1C(OC)OC`, for which the inhibition entry in series [1] and in series [2] was “inactive” in each case.

Consider `C=C[C@H]1[C@H](O[C@@H]2O[C@H](COC(=O)/C=C/c3ccccc3)[C@@H](O)[C@H](O)[C@H]2O)OC=C(C(=O)O)[C@H]1CC(=O)OC`, for which the inhibition result in series [1] and in series [2] was “inactive” in each case.

Consider `C/C=C1/[C@H](O[C@@H]2O[C@H](CO[C@@H]3O[C@H](CO)[C@@H](O)[C@H](O)[C@H]3O)[C@@H](O)[C@H](O)[C@H]2O)OC=C(C(=O)OC)[C@H]1CC(=O)OCCc1ccc(O)cc1`, for which the inhibition at 20 µM in series [1] came to 17.8%. Also, the inhibition at 100 µM in series [2] stood at 60.8%.

As to `COC(=O)C1=CO[C@@H](O[C@@H]2O[C@H](CO)[C@@H](O)[C@H](O)[C@H]2O)[C@@](O)(CC(=O)O)[C@@H]1CC(=O)O`, the inhibition at 20 µM in series [1] was determined as 29.4%. In series [2], the inhibition at 100 µM amounted to 76.2%.
